According to ChEMBL document CHEMBL1201862, “PubChem BioAssay data set” (2004):
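Values below derive from 48-hour exposures of cells grown in 96-well plates, with endpoints linearly interpolated between the two concentrations bracketing the appropriate inhibition level. At the GI50, growth is halved.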 Activity calls are given as the source filed them. Rule as the data show it: active = GI50 up to about 1.1 µM and inactive = higher.

Experiments:
Experiment in all cases: NCI anticancer screen, dose series, 48 h
NCI-H226 = tested on: NCI-H226
SNB-19 = tested on: SNB-19
SF-295 = tested on: SF-295
OVCAR-8 = tested on: OVCAR-8
OVCAR-3 = tested on: OVCAR-3
MDA-N = tested on: MDA-N
A549 = tested on: A549
SK-MEL-5 = tested on: SK-MEL-5
K562 = tested on: K562
RXF 393 = tested on: RXF 393
ACHN = tested on: ACHN
T47D = tested on: T47D
LOX IMVI = tested on: LOX IMVI
U-251 = tested on: U-251
CAKI-1 = tested on: CAKI-1
COLO 205 = tested on: COLO 205
Hs-578T = tested on: Hs-578T
SK-MEL-2 = tested on: SK-MEL-2
UACC-257 = tested on: UACC-257
SK-MEL-28 = tested on: SK-MEL-28
HOP-62 = tested on: HOP-62
BT-549 = tested on: BT-549
786-0 = tested on: 786-0
NCI-H460 = tested on: NCI-H460
NCI/ADR-RES = tested on: NCI/ADR-RES
HCC 2998 = tested on: HCC 2998
MCF7 = tested on: MCF7
HCT-15 = tested on: HCT-15
DU-145 = tested on: DU-145
HOP-92 = tested on: HOP-92
SNB-75 = tested on: SNB-75
HL-60 = tested on: HL-60
KM12 = tested on: KM12
SN12C = tested on: SN12C
PC-3 = tested on: PC-3
A498 = tested on: A498
MDA-MB-435 = tested on: MDA-MB-435
HT-29 = tested on: HT-29
SF-539 = tested on: SF-539
UO-31 = tested on: UO-31
OVCAR-4 = tested on: OVCAR-4
IGROV-1 = tested on: IGROV-1
RPMI-8226 = tested on: RPMI-8226
SK-OV-3 = tested on: SK-OV-3
Malme-3M = tested on: Malme-3M
NCI-H522 = tested on: NCI-H522
TK-10 = tested on: TK-10
OVCAR-5 = tested on: OVCAR-5
HCT-116 = tested on: HCT-116
MDA-MB-231 = tested on: MDA-MB-231
EKVX = tested on: EKVX
NCI-H23 = tested on: NCI-H23
UACC-62 = tested on: UACC-62
CCRF-CEM = tested on: CCRF-CEM
MOLT-4 = tested on: MOLT-4
SF-268 = tested on: SF-268
SW-620 = tested on: SW-620
M14 = tested on: M14
SR = tested on: SR
DMS-114 = tested on: DMS-114
LXFL 529 = tested on: LXFL 529
KM-20L2 = tested on: KM-20L2
M19-MEL = tested on: M19-MEL
DMS-273 = tested on: DMS-273
SNB-78 = tested on: SNB-78

COc1cc2c(cc1C[N+](C)(C)CSc1ccccc1)-c1ccccc1CC2 was tested, and the GI50 (NCI-H226) was 9.02 µM (inactive), the GI50 (SNB-19) was 4.28 µM (inactive) and the GI50 (SF-295) was 12.2 µM (inactive). For the same molecule, the GI50 (OVCAR-8) was 3.9 µM (inactive), the GI50 (OVCAR-3) was 2.29 µM (inactive) and the GI50 (MDA-N) was 1.77 µM (inactive). The GI50 (A549) was 19 µM (inactive), the GI50 (SK-MEL-5) was 1.17 µM (inactive) and the GI50 (K562) was 2.18 µM (inactive). For the same molecule, the GI50 (RXF 393) was 6.53 µM (inactive), the GI50 (ACHN) was 15.3 µM (inactive) and the GI50 (T47D) was 2.91 µM (inactive). The GI50 (LOX IMVI) was 4 µM (inactive), the GI50 (U-251) was 4.14 µM (inactive) and the GI50 (CAKI-1) was 13.5 µM (inactive). For the same molecule, the GI50 (COLO 205) was 1.75 µM (inactive), the GI50 (Hs-578T) was 4.99 µM (inactive) and the GI50 (SK-MEL-2) was 2 µM (inactive). For the same molecule, the GI50 (UACC-257) was 2.52 µM (inactive), the GI50 (SK-MEL-28) was 4.31 µM (inactive) and the GI50 (HOP-62) was 11.4 µM (inactive). For the same molecule, the GI50 (BT-549) was 3.89 µM (inactive), the GI50 (786-0) was 6.07 µM (inactive) and the GI50 (NCI-H460) was 3.29 µM (inactive). The GI50 (NCI/ADR-RES) was 37.5 µM (inactive), the GI50 (HCC 2998) was 4.31 µM (inactive) and the GI50 (MCF7) was 5 µM (inactive). The GI50 (HCT-15) was 16.5 µM, the GI50 (DU-145) was 8.61 µM (inactive) and the GI50 (HOP-92) was 8.51 µM (inactive). The GI50 (SNB-75) was 1.19 µM (inactive), the GI50 (HL-60) was 0.721 µM (active) and the GI50 (KM12) was 2.2 µM (inactive). The GI50 (SN12C) was 6.21 µM (inactive), the GI50 (PC-3) was 2.61 µM (inactive) and the GI50 (A498) was 18.5 µM (inactive). The GI50 (MDA-MB-435) was 3.18 µM (inactive), the GI50 (HT-29) was 2.25 µM (inactive) and the GI50 (SF-539) was 7.96 µM (inactive). For the same molecule, the GI50 (UO-31) was 15.2 µM (inactive), the GI50 (OVCAR-4) was 5.98 µM (inactive) and the GI50 (IGROV-1) was 2.47 µM (inactive). The GI50 (RPMI-8226) was 1.57 µM (inactive), the GI50 (SK-OV-3) was 12.6 µM (inactive) and the GI50 (Malme-3M) was 1.71 µM (inactive). The GI50 (NCI-H522) was 2.01 µM (inactive), the GI50 (TK-10) was 8.77 µM (inactive) and the GI50 (OVCAR-5) was 12 µM (inactive). For the same molecule, the GI50 (HCT-116) was 2.24 µM (inactive), the GI50 (MDA-MB-231) was 2.86 µM (inactive) and the GI50 (EKVX) was 10.6 µM (inactive). The GI50 (NCI-H23) was 3.76 µM (inactive), the GI50 (UACC-62) was 2.52 µM (inactive) and the GI50 (CCRF-CEM) was 3.64 µM (inactive). The GI50 (MOLT-4) was 2.33 µM (inactive), the GI50 (SF-268) was 5.32 µM (inactive) and the GI50 (SW-620) was 10.4 µM (inactive). The GI50 (M14) was 2.07 µM (inactive) and the GI50 (SR) was 2.01 µM (inactive).
c1ccc(-c2nnc(-c3nsc4ccccc34)o2)cc1 was tested, and the GI50 (SNB-19) was > 100 µM (inactive), the GI50 (OVCAR-8) was > 100 µM (inactive) and the GI50 (OVCAR-3) was > 100 µM (inactive). For the same molecule, the GI50 (A549) was > 100 µM (inactive), the GI50 (SK-MEL-5) was > 100 µM (inactive) and the GI50 (K562) was > 100 µM (inactive). The GI50 (RXF 393) was > 100 µM (inactive), the GI50 (LOX IMVI) was > 100 µM (inactive) and the GI50 (U-251) was > 100 µM (inactive). The GI50 (COLO 205) was > 100 µM (inactive), the GI50 (SK-MEL-2) was > 100 µM (inactive) and the GI50 (UACC-257) was > 100 µM (inactive). The GI50 (SK-MEL-28) was > 100 µM (inactive), the GI50 (HOP-62) was > 100 µM (inactive) and the GI50 (HCC 2998) was > 100 µM (inactive). For the same molecule, the GI50 (HCT-15) was over 100 µM, the GI50 (HOP-92) was 18.4 µM (inactive) and the GI50 (SNB-75) was 2.56 µM (inactive). For the same molecule, the GI50 (HL-60) was > 100 µM (inactive), the GI50 (KM12) was > 100 µM (inactive) and the GI50 (DMS-114) was > 100 µM (inactive). For the same molecule, the GI50 (LXFL 529) was > 100 µM (inactive), the GI50 (KM-20L2) was > 100 µM (inactive) and the GI50 (SN12C) was > 100 µM (inactive). For the same molecule, the GI50 (M19-MEL) was > 100 µM (inactive), the GI50 (HT-29) was > 100 µM (inactive) and the GI50 (SF-539) was > 100 µM (inactive). The GI50 (UO-31) was 19.5 µM (inactive), the GI50 (OVCAR-4) was > 100 µM (inactive) and the GI50 (IGROV-1) was 60.4 µM (inactive). The GI50 (RPMI-8226) was > 100 µM (inactive), the GI50 (TK-10) was > 100 µM (inactive) and the GI50 (OVCAR-5) was > 100 µM (inactive). The GI50 (HCT-116) was > 100 µM (inactive), the GI50 (EKVX) was 41.4 µM (inactive) and the GI50 (NCI-H23) was > 100 µM (inactive). The GI50 (UACC-62) was > 100 µM (inactive), the GI50 (DMS-273) was > 100 µM (inactive) and the GI50 (CCRF-CEM) was > 100 µM (inactive). The GI50 (MOLT-4) was > 100 µM (inactive), the GI50 (SF-268) was > 100 µM (inactive) and the GI50 (SW-620) was > 100 µM (inactive). For the same molecule, the GI50 (SNB-78) was 98.9 µM (inactive) and the GI50 (M14) was > 100 µM (inactive).
